Experimental data as given in ChEMBL document CHEMBL1201862, “PubChem BioAssay data set” (2004).
Calls of active or inactive are those of the source.

Assays:
[1] = target: 5-hydroxytryptamine receptor 5A (Homo sapiens, UniProt P47898); assay: Counterscreen for agonists of OPRM1-OPRD1 heterodimerization: luminescence-based cell-based high throughput dose response assay to identify agonists of 5-hydroxytryptamine (serotonin) 5A receptor (HTR5A). [Related pubchem assays (depositor defined):AID504326, AID504355, AID504692, AID504904, AID504905]; format: functional
5-hydroxytryptamine receptor 5A, sequence (P47898 whole entry): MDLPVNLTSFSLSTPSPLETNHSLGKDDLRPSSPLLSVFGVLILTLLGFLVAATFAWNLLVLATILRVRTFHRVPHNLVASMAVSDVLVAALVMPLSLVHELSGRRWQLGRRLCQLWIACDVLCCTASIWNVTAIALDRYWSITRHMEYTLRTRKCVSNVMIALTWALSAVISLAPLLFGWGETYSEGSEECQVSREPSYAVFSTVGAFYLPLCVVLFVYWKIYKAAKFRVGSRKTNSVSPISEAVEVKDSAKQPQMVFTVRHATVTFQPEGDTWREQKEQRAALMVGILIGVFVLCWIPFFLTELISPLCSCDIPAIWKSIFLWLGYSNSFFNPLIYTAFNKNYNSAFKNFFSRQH

[2] = target: Delta-type opioid receptor (Homo sapiens, UniProt P41143); assay: Counterscreen for agonists of heterodimerization of the mu 1 (OPRM1) and delta 1 (OPRD1) opioid receptors: Luminescence-based cell-based high throughput dose response assay to identify agonists of OPRD1 homodimerization. [Related pubchem assays (depositor defined):AID504326, AID504355, AID504692, AID504904, AID504905]; format: functional
Delta-type opioid receptor, sequence (P41143 whole entry): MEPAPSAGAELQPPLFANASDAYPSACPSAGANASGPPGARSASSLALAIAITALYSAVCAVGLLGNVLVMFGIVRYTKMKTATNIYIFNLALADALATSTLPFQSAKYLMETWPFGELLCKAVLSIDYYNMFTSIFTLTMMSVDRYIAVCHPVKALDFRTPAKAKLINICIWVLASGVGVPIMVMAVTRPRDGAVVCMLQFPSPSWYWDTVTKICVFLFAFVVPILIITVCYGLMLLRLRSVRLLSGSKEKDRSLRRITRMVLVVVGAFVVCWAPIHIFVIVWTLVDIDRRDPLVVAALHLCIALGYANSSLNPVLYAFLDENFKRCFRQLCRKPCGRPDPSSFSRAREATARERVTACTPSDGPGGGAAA

[3] = target: T1, Short transient receptor potential channel 4 (Mus musculus, UniProt Q9QUQ5); assay: mouse TRPC4 channel inhibitors, dose response, cell-based, HEK293 TRPC4/mu-opioid, Fluo-4 calcium (AID 434942); format: functional;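 further: potency of inhibitors blocking the TRPC4 calcium response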
T1 sequence (Q9QUQ5 whole entry): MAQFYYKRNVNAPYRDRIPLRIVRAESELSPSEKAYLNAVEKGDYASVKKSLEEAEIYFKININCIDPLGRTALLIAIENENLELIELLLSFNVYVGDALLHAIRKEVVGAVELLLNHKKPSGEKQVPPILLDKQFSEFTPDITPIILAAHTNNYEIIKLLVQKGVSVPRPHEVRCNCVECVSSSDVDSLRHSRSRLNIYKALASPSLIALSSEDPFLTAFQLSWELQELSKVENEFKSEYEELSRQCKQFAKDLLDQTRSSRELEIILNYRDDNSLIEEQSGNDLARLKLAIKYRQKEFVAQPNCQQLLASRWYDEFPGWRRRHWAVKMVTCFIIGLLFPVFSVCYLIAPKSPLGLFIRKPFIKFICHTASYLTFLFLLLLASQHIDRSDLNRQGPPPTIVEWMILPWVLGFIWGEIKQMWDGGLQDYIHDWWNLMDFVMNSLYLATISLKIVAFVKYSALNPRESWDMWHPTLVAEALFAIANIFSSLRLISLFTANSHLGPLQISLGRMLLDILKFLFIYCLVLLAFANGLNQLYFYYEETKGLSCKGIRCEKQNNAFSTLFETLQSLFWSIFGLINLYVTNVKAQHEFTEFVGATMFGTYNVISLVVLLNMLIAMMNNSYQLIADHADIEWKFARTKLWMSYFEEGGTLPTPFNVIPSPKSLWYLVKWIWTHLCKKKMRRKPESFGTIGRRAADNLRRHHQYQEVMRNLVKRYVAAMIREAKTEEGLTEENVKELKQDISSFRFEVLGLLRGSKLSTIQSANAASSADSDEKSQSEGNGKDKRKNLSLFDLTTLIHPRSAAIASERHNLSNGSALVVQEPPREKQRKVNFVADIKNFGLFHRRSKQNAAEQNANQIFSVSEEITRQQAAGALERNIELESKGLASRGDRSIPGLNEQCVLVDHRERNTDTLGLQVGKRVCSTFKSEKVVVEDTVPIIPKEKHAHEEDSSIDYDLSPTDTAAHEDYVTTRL

Mu-type opioid receptor = Mu-type opioid receptor (Homo sapiens, UniProt P35372); assay: Counterscreen for agonists of heterodimerization of the mu 1 (OPRM1) and delta 1 (OPRD1) opioid receptors: Luminescence-based cell-based high throughput dose response assay to identify agonists of OPRM1 homodimerization.; format: functional;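 further: U2OS cells expressing OPRM1 and beta-arrestin as split beta-galactosidase partners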
Mu-type opioid receptor, sequence (P35372 whole entry): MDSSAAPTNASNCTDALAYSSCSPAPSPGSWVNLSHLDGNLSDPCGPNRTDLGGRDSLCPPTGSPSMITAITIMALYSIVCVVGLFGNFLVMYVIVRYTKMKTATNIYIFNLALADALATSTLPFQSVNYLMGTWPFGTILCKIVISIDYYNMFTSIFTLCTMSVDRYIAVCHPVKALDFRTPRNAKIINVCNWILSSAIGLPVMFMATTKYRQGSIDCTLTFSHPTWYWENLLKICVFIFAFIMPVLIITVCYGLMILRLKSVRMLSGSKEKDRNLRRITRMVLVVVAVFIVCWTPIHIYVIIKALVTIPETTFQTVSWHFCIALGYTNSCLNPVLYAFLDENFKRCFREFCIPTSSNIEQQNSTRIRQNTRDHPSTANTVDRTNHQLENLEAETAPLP

[4] = cytotoxicity in HEK-293T cells, dose response, cytotoxicity control for TCR NF-kB inhibitor project, luminescence, T-cell screen hits (AID 489026); format: functional, cell-based;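 further: cells exposed to compound about 14 hours before the viability readout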
cells [5] = format: functional, cell-based
[6] = NIH-3T3 fibroblast cytotoxicity, dose response, cytotoxicity control, cell-based, fluorescence, Alamar Blue, secondary assay (AID 2327); format: functional;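 further: NIH-3T3 mouse fibroblasts cultured with fluconazole at 8 µg/mL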
[7] = cytotoxicity toward NIH3T3 fibroblasts, dose response, counter-screen, cell-based, ATP luminescence, mouse fibroblasts (AID 2010); format: functional;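 further: cells exposed to compound for about 90 hours before reading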
cells [8] = format: functional, cell-based; remark: listed apart in the source
INS1 = assay: beta cell apoptosis inhibitors, cytokine rescue, dose response, luminescence, retest (AID 449756); format: functional, cell-based; settings: Rattus norvegicus;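 further: cell death triggered by IL-1 beta plus TNF-alpha plus IFN-gamma mixture; protective hits raise ATP signal compared with cytokine alone wells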
[9] = inhibitors of intracellular T. cruzi replication, confirmation, NIH3T3 host cells, beta-gal luminescence (AID 2044); format: functional, cell-based;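 further: intracellular parasites grown in NIH/3T3 mouse fibroblasts as host cells; luminescent beta-galactosidase reporter signal from transgenic T. cruzi replicating inside host cells; inhibitors lower the luminescence signal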
[10] = C. albicans growth with fluconazole, confirmation, fluorescence, retest (AID 2467); format: functional, cell-based
[11] = target: Heat shock protein HSP 90-alpha (Homo sapiens, UniProt P07900); format: functional, organism-based
Streptococcus = assay: Group A Streptococcus viability loss, dose response, counter-screen for streptokinase expression inhibitor project, luminescence, BacTiterGlo (AID 1915); format: functional, organism-based;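 further: potency for reduction of bacterial viability or growth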
HEK293 [12] = assay: NOD2 signaling inhibitors in MDP-stimulated cells, cell-based, uHTS, luminescence (AID 2001); format: functional; settings: Homo sapiens
[13] = test system: Streptococcus sp. 'group A'; assay: growth inhibition of control SK(-) GAS strain, dose response, counter-screen for streptokinase expression inhibitor project, luminescence, kanamycin, BacTiterGlo, confirmation (AID 1900); format: functional, organism-based
HEK293 [14] = assay: NOD1 signaling inhibitors, primary screen, cell-based, luminescence, uHTS (AID 1578); format: functional; settings: Homo sapiens
[15] = target: DNA repair protein RAD52 homolog (Homo sapiens, UniProt P43351); format: functional, biochemical
DNA repair protein RAD52 homolog, sequence (P43351 whole entry): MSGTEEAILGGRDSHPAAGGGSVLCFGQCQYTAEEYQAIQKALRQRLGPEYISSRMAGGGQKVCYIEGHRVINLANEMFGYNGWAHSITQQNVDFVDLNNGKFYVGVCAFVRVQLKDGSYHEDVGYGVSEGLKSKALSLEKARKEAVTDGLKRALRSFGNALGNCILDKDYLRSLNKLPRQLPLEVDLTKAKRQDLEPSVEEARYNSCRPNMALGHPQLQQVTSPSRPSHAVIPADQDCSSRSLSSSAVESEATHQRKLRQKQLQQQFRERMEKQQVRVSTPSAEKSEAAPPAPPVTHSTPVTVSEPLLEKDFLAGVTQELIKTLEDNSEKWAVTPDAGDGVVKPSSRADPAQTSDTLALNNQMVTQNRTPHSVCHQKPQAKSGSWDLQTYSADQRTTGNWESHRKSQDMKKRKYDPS

CAAX prenyl protease 2 [16] = target: CAAX prenyl protease 2 (Saccharomyces cerevisiae S288c, UniProt Q03530); format: biochemical
CAAX prenyl protease 2 (Saccharomyces cerevisiae S288c, UniProt Q03530), sequence (Q03530 whole entry): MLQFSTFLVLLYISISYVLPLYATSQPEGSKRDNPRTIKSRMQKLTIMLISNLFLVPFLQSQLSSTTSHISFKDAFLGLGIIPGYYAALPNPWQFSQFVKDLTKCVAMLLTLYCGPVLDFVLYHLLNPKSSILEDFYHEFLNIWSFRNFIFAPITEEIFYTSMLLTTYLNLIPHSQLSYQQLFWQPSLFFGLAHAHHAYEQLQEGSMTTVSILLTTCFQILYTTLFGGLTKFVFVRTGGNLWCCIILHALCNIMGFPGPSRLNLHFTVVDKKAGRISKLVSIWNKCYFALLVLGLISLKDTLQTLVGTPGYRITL

HEK293 [17] = assay: cells; format: functional, cell-based; settings: Homo sapiens
cells [18] = assay: cells
HEK293 [19] = assay: cells; format: functional, cell-based; settings: Homo sapiens; remark: listed apart in the source
Streptokinase A = target: T2, Streptokinase A (Streptococcus pyogenes serotype M1, UniProt P10520); assay: S. pyogenes streptokinase expression inhibitors, potency, dose response, plasminogen activation absorbance, OD405 (AID 1914); format: functional, Streptococcus pyogenes M1 GAS;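 further: secreted streptokinase activity via plasminogen activation per viability signal from cell pellet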
T2 sequence (P10520 whole entry): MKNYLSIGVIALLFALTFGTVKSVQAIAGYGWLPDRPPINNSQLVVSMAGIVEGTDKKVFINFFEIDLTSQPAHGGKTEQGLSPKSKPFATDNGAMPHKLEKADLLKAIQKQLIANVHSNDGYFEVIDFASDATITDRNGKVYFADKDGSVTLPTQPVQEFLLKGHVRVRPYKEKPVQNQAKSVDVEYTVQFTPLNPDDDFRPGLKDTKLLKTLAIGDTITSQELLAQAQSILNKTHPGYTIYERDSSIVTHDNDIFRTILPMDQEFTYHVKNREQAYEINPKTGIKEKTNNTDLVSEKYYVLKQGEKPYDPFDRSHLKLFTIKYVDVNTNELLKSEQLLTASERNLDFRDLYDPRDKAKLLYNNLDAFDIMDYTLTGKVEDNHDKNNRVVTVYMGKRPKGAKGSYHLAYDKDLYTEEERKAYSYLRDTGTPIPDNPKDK

CAAX prenyl protease 2 [20] = target: CAAX prenyl protease 2 (Homo sapiens, UniProt Q9Y256); assay: human Rce1 protease inhibitors, dose response, biochemical, yeast membranes, quenched-peptide fluorescence, cherry-pick (AID 588849)
CAAX prenyl protease 2 (Homo sapiens, UniProt Q9Y256), sequence (Q9Y256 whole entry): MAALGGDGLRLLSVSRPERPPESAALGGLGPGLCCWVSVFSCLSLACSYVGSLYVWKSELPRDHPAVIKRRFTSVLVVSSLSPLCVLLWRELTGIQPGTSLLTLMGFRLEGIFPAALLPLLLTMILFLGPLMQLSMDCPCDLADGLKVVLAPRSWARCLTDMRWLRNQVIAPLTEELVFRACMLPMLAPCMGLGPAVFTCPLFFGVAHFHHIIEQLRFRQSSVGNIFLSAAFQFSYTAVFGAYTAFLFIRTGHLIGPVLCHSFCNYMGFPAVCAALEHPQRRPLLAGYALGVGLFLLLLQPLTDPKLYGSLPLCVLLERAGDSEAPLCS

Cysteine protease ATG4B = Cysteine protease ATG4B (Homo sapiens, UniProt Q9Y4P1); format: functional;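 further: Fluorescence-based dose-response confirmation assay measuring inhibition of ATG4B activity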
Cysteine protease ATG4B, sequence (Q9Y4P1 whole entry): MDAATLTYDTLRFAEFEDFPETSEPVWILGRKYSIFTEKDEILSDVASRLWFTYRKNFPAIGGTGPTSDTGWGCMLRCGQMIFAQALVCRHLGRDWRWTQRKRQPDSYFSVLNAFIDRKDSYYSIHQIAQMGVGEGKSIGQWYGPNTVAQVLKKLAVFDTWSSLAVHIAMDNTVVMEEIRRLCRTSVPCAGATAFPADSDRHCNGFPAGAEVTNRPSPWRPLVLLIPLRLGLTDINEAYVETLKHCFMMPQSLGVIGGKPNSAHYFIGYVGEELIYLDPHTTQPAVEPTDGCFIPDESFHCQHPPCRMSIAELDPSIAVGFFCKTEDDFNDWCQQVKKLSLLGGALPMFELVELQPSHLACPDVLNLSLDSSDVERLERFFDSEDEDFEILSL

Phospholipase A2 = Phospholipase A2 (Homo sapiens, UniProt P04054); format: functional;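 further: confirmatory dose-response counterscreen on phospholipase A2, testing hits that came from an ultra-high-throughput screen for ATG4B inhibitors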
Phospholipase A2, sequence (P04054 whole entry): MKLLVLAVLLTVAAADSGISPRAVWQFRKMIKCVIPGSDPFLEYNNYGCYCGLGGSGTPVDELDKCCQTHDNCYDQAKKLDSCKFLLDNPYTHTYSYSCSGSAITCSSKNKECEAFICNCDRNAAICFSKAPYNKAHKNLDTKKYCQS

[21] = target: T1, Short transient receptor potential channel 4; assay: mouse TRPC4 channel activators, dose response, cell-based, HEK293 TRPC4/mu-opioid, Fluo-4 calcium (AID 434937); format: functional
A-375 = assay: MITF: Counter assay: A375 proliferation Measured in Cell-Based System Using Plate Reader - 2084-03_Inhibitor_Dose_DryPowder_Activity. [Related pubchem assays (depositor defined):AID488944]; format: functional; settings: Homo sapiens
[22] = target: T3, Microphthalmia-associated transcription factor (Homo sapiens, UniProt O75030); assay: TRPM1 promoter luciferase signal decrease, dose response, MITF inhibitor project, cell-based, SK-MEL-5, cherry-picked, set 3 (AID 493073); format: functional
T3 sequence (O75030 whole entry): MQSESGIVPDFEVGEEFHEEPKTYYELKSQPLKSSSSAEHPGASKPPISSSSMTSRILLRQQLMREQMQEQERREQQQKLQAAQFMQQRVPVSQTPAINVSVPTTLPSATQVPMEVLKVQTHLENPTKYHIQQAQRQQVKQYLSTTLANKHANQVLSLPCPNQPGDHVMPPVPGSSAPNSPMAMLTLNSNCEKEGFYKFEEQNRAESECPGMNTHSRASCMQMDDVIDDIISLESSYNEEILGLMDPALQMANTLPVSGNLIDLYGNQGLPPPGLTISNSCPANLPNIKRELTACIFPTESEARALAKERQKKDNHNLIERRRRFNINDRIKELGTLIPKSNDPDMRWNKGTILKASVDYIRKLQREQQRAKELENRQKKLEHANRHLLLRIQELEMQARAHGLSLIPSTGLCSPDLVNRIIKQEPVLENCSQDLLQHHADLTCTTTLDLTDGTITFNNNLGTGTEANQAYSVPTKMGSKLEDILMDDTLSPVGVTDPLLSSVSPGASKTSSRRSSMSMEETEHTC

[23] = A Cell Based Secondary Assay To Explore Cytotoxicity of Compounds that Sensitize Mycobacterium Tuberculosis to Beta-Lactam Antibiotics.; format: functional
Escherichia coli = assay: microbe, parasite or virus in culture

COc1ccc2c(c1)C=C(CN1CCC(CO)(CCc3ccccc3)CC1)CO2
EC50 [1]: > 92.5 µM (inactive) | EC50 [2]: 67.7 µM (inactive) | EC50 [3]: 2.11 µM (active) | EC50 (Mu-type opioid receptor): 85.9 µM (inactive)

CCC(=O)NC(c1cccs1)c1ccc2cccnc2c1O (stereo not drawn)
IC50 [4]: > 80 µM (inactive) | EC50 (cells [5]): 8.02 µM (active) | EC50 [6]: 3.59 µM (active) | EC50 [7]: 1.48 µM (active) | EC50 (cells [8]): > 350 µM (not active) | AC50 (INS1): 0.86 µM (active) | EC50 [9]: 0.48 µM (active) | EC50 [10]: 1.39 µM (active) | AC50 [11]: 7.9 µM (active)

CCC(C)(C)c1ccc(OCCCC[n+]2cccc(C)c2)c(C(C)(C)CC)c1
EC50 (Streptococcus): 14.9 µM (active) | IC50 (HEK293 [12]): 3.36 µM (active) | EC50 [13]: 6.58 µM (active) | EC50 (HEK293 [14]): 8.28 µM (active) | AC50 [15]: 7.32 µM (active) | AC50 (CAAX prenyl protease 2 [16]): 10.5 µM (active) | IC50 (HEK293 [17]): 7.99 µM (active) | EC50 (cells [18]): 0.128 µM (active) | IC50 (HEK293 [19]): 4.11 µM (active) | EC50 (Streptokinase A): 14.1 µM (active) | EC50 [7]: > 30 µM (not active) | EC50 [9]: < 0.1 µM (active) | AC50 (CAAX prenyl protease 2 [20]): 22 µM (active)

CCOC(=O)c1c(C)[nH]c(C(=O)COC(=O)COc2ccccc2C=O)c1C
IC50 (Cysteine protease ATG4B): 10.5 µM (active) | IC50 (Phospholipase A2): 9.64 µM (active)

CC(C)C1CC(CCNCc2ccc(N(C)C)cc2)(c2ccccc2)CCO1 (stereo not drawn)
EC50 [21]: 6.68 µM (active) | AC50 (A-375): 20.7 µM (active) | AC50 [22]: 11.1 µM (active) | CC50 [23]: 33.3 µM (active)

O=C(NCc1ccccc1)c1ccc(CS(=O)(=O)c2ccccc2)o1
AC50 (Escherichia coli): 28.6 µM (active)
